In ChEMBL document CHEMBL3045792, “Synthesis, antimicrobial activity, and molecular modeling of novel 4-(3-(4-benzylpiperazin-1-yl)propoxy)-7-methoxy-3-substituted phenyl-2H-chromen-2-one” (2013):
Active and inactive are the calls of the source. The rule behind the calls is not given here.

Tests used:
Format in all cases: functional
Staphylococcus aureus [1] = assay: Antibacterial activity against Staphylococcus aureus assessed as growth inhibition at 600 ug/ml by NCCLS […] method; conditions: read-out: IZ
Bacillus pumilus [2] = assay: Antibacterial activity against Bacillus pumilus assessed as growth inhibition at 900 ug/ml by NCCLS […] method; conditions: read-out: IZ
Bacillus pumilus [3] = assay: Antibacterial activity against Bacillus pumilus assessed as growth inhibition at 600 ug/ml by NCCLS […] method; conditions: read-out: IZ
Priestia megaterium [4] = assay: Antibacterial activity against Bacillus megaterium assessed as growth inhibition at 900 ug/ml by NCCLS […] method; conditions: read-out: IZ
Priestia megaterium [5] = assay: Antibacterial activity against Bacillus megaterium assessed as growth inhibition at 600 ug/ml by NCCLS […] method; conditions: read-out: IZ
Bacillus subtilis [6] = assay: Antibacterial activity against Bacillus subtilis assessed as growth inhibition at 900 ug/ml by NCCLS […] method; conditions: read-out: IZ
Bacillus subtilis [7] = assay: Antibacterial activity against Bacillus subtilis assessed as growth inhibition at 600 ug/ml by NCCLS […] method; conditions: read-out: IZ
Klebsiella aerogenes [8] = assay: Antibacterial activity against Enterobacter aerogenes assessed as growth inhibition at 900 ug/ml by NCCLS […] method; conditions: read-out: IZ
Klebsiella aerogenes [9] = assay: Antibacterial activity against Enterobacter aerogenes assessed as growth inhibition at 600 ug/ml by NCCLS […] method; conditions: read-out: IZ
Klebsiella pneumoniae [10] = assay: Antibacterial activity against Klebsiella pneumoniae assessed as growth inhibition at 900 ug/ml by NCCLS […] method; conditions: read-out: IZ
Klebsiella pneumoniae [11] = assay: Antibacterial activity against Klebsiella pneumoniae assessed as growth inhibition at 600 ug/ml by NCCLS […] method; conditions: read-out: IZ
Proteus mirabilis [12] = assay: Antibacterial activity against Proteus mirabilis assessed as growth inhibition at 900 ug/ml by NCCLS […] method; conditions: read-out: IZ
Proteus mirabilis [13] = assay: Antibacterial activity against Proteus mirabilis assessed as growth inhibition at 600 ug/ml by NCCLS […] method; conditions: read-out: IZ
Proteus vulgaris [14] = assay: Antibacterial activity against Proteus vulgaris assessed as growth inhibition at 900 ug/ml by NCCLS […] method; conditions: read-out: IZ
Proteus vulgaris [15] = assay: Antibacterial activity against Proteus vulgaris assessed as growth inhibition at 600 ug/ml by NCCLS […] method; conditions: read-out: IZ
Escherichia coli [16] = assay: Antibacterial activity against Escherichia coli assessed as growth inhibition at 900 ug/ml by NCCLS […] method
Fusarium oxysporum [17] = assay: Antifungal activity against Fusarium oxysporum assessed as growth inhibition at 900 ug/ml
Fusarium oxysporum [18] = assay: Antifungal activity against Fusarium oxysporum assessed as growth inhibition at 600 ug/ml
Fusarium oxysporum [19] = assay: Antifungal activity against Fusarium oxysporum assessed as growth inhibition at 300 ug/ml
Candida albicans [20] = assay: Antifungal activity against Candida albicans assessed as growth inhibition at 1200 ug/ml; conditions: read-out: IZ
Candida albicans [21] = assay: Antifungal activity against Candida albicans assessed as growth inhibition at 900 ug/ml; conditions: read-out: IZ
Candida albicans [22] = assay: Antifungal activity against Candida albicans assessed as growth inhibition at 600 ug/ml; conditions: read-out: IZ
Candida albicans [23] = assay: Antifungal activity against Candida albicans assessed as growth inhibition at 300 ug/ml; conditions: read-out: IZ
Streptococcus pyogenes [24] = assay: Antibacterial activity against Streptococcus pyogenes assessed as growth inhibition at 600 ug/ml by NCCLS […] method; conditions: read-out: IZ
Streptococcus pyogenes [25] = assay: Antibacterial activity against Streptococcus pyogenes assessed as growth inhibition at 900 ug/ml by NCCLS […] method; conditions: read-out: IZ
Staphylococcus aureus [26] = assay: Antibacterial activity against Staphylococcus aureus assessed as growth inhibition at 900 ug/ml by NCCLS […] method; conditions: read-out: IZ
Escherichia coli [27] = assay: Antibacterial activity against Escherichia coli assessed as growth inhibition at 600 ug/ml by NCCLS […] method
Colletotrichum falcatum [28] = assay: Antifungal activity against Glomerella tucumanensis assessed as growth inhibition at 1200 ug/ml; conditions: read-out: IZ
Colletotrichum falcatum [29] = assay: Antifungal activity against Glomerella tucumanensis assessed as growth inhibition at 900 ug/ml; conditions: read-out: IZ
Colletotrichum falcatum [30] = assay: Antifungal activity against Glomerella tucumanensis assessed as growth inhibition at 600 ug/ml; conditions: read-out: IZ
Colletotrichum falcatum [31] = assay: Antifungal activity against Glomerella tucumanensis assessed as growth inhibition at 300 ug/ml; conditions: read-out: IZ
Exserohilum rostratum [32] = assay: Antifungal activity against Setosphaeria rostrata assessed as growth inhibition at 1200 ug/ml; conditions: read-out: IZ
Exserohilum rostratum [33] = assay: Antifungal activity against Setosphaeria rostrata assessed as growth inhibition at 900 ug/ml; conditions: read-out: IZ
Exserohilum rostratum [34] = assay: Antifungal activity against Setosphaeria rostrata assessed as growth inhibition at 600 ug/ml; conditions: read-out: IZ
Exserohilum rostratum [35] = assay: Antifungal activity against Setosphaeria rostrata assessed as growth inhibition at 300 ug/ml; conditions: read-out: IZ
Fusarium oxysporum [36] = assay: Antifungal activity against Fusarium oxysporum assessed as growth inhibition at 1200 ug/ml

| Compound | zone of inhibition at 600 µg/mL (Staphylococcus aureus [1]) [mm] | zone of inhibition at 900 µg/mL (Bacillus pumilus [2]) [mm] | zone of inhibition at 600 µg/mL (Bacillus pumilus [3]) [mm] | zone of inhibition at 900 µg/mL (Priestia megaterium [4]) [mm] | zone of inhibition at 600 µg/mL (Priestia megaterium [5]) [mm] | zone of inhibition at 900 µg/mL (Bacillus subtilis [6]) [mm] | zone of inhibition at 600 µg/mL (Bacillus subtilis [7]) [mm] | zone of inhibition at 900 µg/mL (Klebsiella aerogenes [8]) [mm] | zone of inhibition at 600 µg/mL (Klebsiella aerogenes [9]) [mm] | zone of inhibition at 900 µg/mL (Klebsiella pneumoniae [10]) [mm] | zone of inhibition at 600 µg/mL (Klebsiella pneumoniae [11]) [mm] | zone of inhibition at 900 µg/mL (Proteus mirabilis [12]) [mm] | zone of inhibition at 600 µg/mL (Proteus mirabilis [13]) [mm] | zone of inhibition at 900 µg/mL (Proteus vulgaris [14]) [mm] | zone of inhibition at 600 µg/mL (Proteus vulgaris [15]) [mm] | zone of inhibition at 1200 µg/mL (Candida albicans [20]) [mm] | zone of inhibition at 900 µg/mL (Candida albicans [21]) [mm] | zone of inhibition at 600 µg/mL (Candida albicans [22]) [mm] | zone of inhibition at 300 µg/mL (Candida albicans [23]) [mm] | zone of inhibition at 600 µg/mL (Streptococcus pyogenes [24]) [mm] | further results |
| --- | --- | --- | --- | --- | --- | --- | --- | --- | --- | --- | --- | --- | --- | --- | --- | --- | --- | --- | --- | --- | --- |
| COc1ccc(CN2CCN(CCCOc3c(-c4ccccc4)c(=O)oc4cc(OC)ccc34)CC2)cc1 | 3 | 10.5 | 5.25 | 8.19 | 4.26 | 8.9 | 4.28 | 8.9 | 4.24 | 10.1 | 5.48 | 10.5 | 5.25 | 4.25 | 2 | 23.2 | 11 | 5.62 | 2.76 | 2.08 | growth inhibition (GI) (Escherichia coli [16]): inactive; growth inhibition (GI) (Fusarium oxysporum [17]): inactive; growth inhibition (GI) (Fusarium oxysporum [18]): inactive; growth inhibition (GI) (Fusarium oxysporum [19]): inactive; zone of inhibition at 900 µg/mL (Streptococcus pyogenes [25]): 4.19 mm; zone of inhibition at 900 µg/mL (Staphylococcus aureus [26]): 6.25 mm; growth inhibition (GI) (Escherichia coli [27]): inactive; zone of inhibition at 1200 µg/mL (Colletotrichum falcatum [28]): 31.8 mm; zone of inhibition at 900 µg/mL (Colletotrichum falcatum [29]): 17 mm; zone of inhibition at 600 µg/mL (Colletotrichum falcatum [30]): 8.62 mm; zone of inhibition at 300 µg/mL (Colletotrichum falcatum [31]): 4.08 mm; zone of inhibition at 1200 µg/mL (Exserohilum rostratum [32]): 28.8 mm; zone of inhibition at 900 µg/mL (Exserohilum rostratum [33]): 15 mm; zone of inhibition at 600 µg/mL (Exserohilum rostratum [34]): 7.56 mm; zone of inhibition at 300 µg/mL (Exserohilum rostratum [35]): 3.8 mm; growth inhibition (GI) (Fusarium oxysporum [36]): inactive |
| COc1ccc2c(OCCCN3CCN(Cc4ccc(Cl)cc4Cl)CC3)c(-c3ccccc3)c(=O)oc2c1 | 6.5 | 4.28 | 2.01 | 12 | 6.3 | 12.1 | 9.02 | 8.08 | 4.25 | 14 | 8.82 | 9.01 | 4.91 | 8.04 | 4.02 | 17.2 | 9.56 | 4.89 | 2.01 | 3.27 | zone of inhibition at 900 µg/mL (Escherichia coli [16]; read-out: IZ): 14.1 mm; zone of inhibition at 900 µg/mL (Fusarium oxysporum [17]; read-out: IZ): 13.6 mm; zone of inhibition at 600 µg/mL (Fusarium oxysporum [18]; read-out: IZ): 6.25 mm; zone of inhibition at 300 µg/mL (Fusarium oxysporum [19]; read-out: IZ): 3.08 mm; zone of inhibition at 900 µg/mL (Streptococcus pyogenes [25]): 6.25 mm; zone of inhibition at 900 µg/mL (Staphylococcus aureus [26]): 12 mm; zone of inhibition at 600 µg/mL (Escherichia coli [27]; read-out: IZ): 7.02 mm; zone of inhibition at 1200 µg/mL (Colletotrichum falcatum [28]): 26.4 mm; zone of inhibition at 900 µg/mL (Colletotrichum falcatum [29]): 13.8 mm; zone of inhibition at 600 µg/mL (Colletotrichum falcatum [30]): 6.5 mm; zone of inhibition at 300 µg/mL (Colletotrichum falcatum [31]): 3.25 mm; zone of inhibition at 1200 µg/mL (Exserohilum rostratum [32]): 23.2 mm; zone of inhibition at 900 µg/mL (Exserohilum rostratum [33]): 11.6 mm; zone of inhibition at 600 µg/mL (Exserohilum rostratum [34]): 5.76 mm; zone of inhibition at 300 µg/mL (Exserohilum rostratum [35]): 2.89 mm; zone of inhibition at 1200 µg/mL (Fusarium oxysporum [36]; read-out: IZ): 25.8 mm |
